≈ marks a conversion by molar mass, not a printed value. Like-named read-outs stand apart in the source and are kept apart here.
Tests used:
Assay in all cases: Antimicrobial susceptibility testing (MIC), BD Phoenix Automated Microbiology System; as to interpretation of the result: key: R, resistant; I, intermediate; S, susceptible; R*: *As a rule, when ESBL is detected, an interpretation of susceptible or intermediate for penicillins, cephalosporins and aztreonam is reported as resistant
Format in all cases: cell-based
[1] = system: Klebsiella ssp.; details: for MIC: Klebsiella; as to interpretation of the result: key: R, resistant; I, intermediate; S, susceptible; R*: *As a rule, when ESBL is detected, an interpretation of susceptible or intermediate for penicillins, cephalosporins and aztreonam is reported as resistant
From the text: (§1) The inventors performed antimicrobial susceptibility testing (AST) by determining the minimal inhibiting concentration (MIC) of a panel of antimicrobials on all twenty bacterial isolates using the BD Phoenix Automated Microbiology System (Table 3). Antimicrobial panels included several drugs from each of the four most commonly used classes of antimicrobials, aminoglycosides, β-lactams, carbapenems and fluoroquinolones. The panels also included antimicrobials from other classes, such as trimethoprim/sulfamethoxazole, but resistance to these was not considered in the classification of isolates as multidrug-resistant.

[2] = system: Pseudomonas aeruginosa; details: for MIC: Pseudomonas aeruginosa; as to interpretation of the result: key: R, resistant; I, intermediate; S, susceptible; R*: *As a rule, when ESBL is detected, an interpretation of susceptible or intermediate for penicillins, cephalosporins and aztreonam is reported as resistant
From the text: as §1

[3] = system: Acinetobacter baumannii; details: for MIC: Acinetobacter baumannii; as to interpretation of the result: key: R, resistant; I, intermediate; S, susceptible; R*: *As a rule, when ESBL is detected, an interpretation of susceptible or intermediate for penicillins, cephalosporins and aztreonam is reported as resistant
From the text: as §1

[4] = system: Escherichia coli; details: for MIC: Escherichia coli
From the text: as §1

[5] = Pseudomonas aeruginosa isolate 1
[6] = Pseudomonas aeruginosa isolate 2
[7] = Pseudomonas aeruginosa isolate 3
[8] = Pseudomonas aeruginosa isolate 4
[9] = Pseudomonas aeruginosa isolate 5
[10] = Acinetobacter baumannii isolate 1
[11] = Acinetobacter baumannii isolate 2
[12] = Acinetobacter baumannii isolate 3
[13] = Acinetobacter baumannii isolate 4
[14] = Acinetobacter baumannii isolate 5
[15] = read-out: minimal inhibiting concentration
[16] = read-out: minimal inhibiting concentration, Klebsiella ssp. isolate 2
[17] = read-out: minimal inhibiting concentration, Klebsiella ssp. isolate 3
[18] = read-out: minimal inhibiting concentration, Klebsiella ssp. isolate 4
[19] = read-out: minimal inhibiting concentration, Pseudomonas aeruginosa isolate 1
[20] = read-out: minimal inhibiting concentration, Pseudomonas aeruginosa isolate 2
[21] = read-out: minimal inhibiting concentration, Pseudomonas aeruginosa isolate 3
[22] = read-out: minimal inhibiting concentration, Pseudomonas aeruginosa isolate 4
[23] = read-out: minimal inhibiting concentration, Pseudomonas aeruginosa isolate 5
[24] = read-out: minimal inhibiting concentration, Escherichia coli isolate 1
[25] = read-out: minimal inhibiting concentration, Escherichia coli isolate 2
[26] = read-out: minimal inhibiting concentration, Escherichia coli isolate 3
[27] = read-out: minimal inhibiting concentration, Escherichia coli isolate 4
[28] = read-out: minimal inhibiting concentration, Escherichia coli isolate 5

Compound	interpretation of the result ([1]; Klebsiella ssp. isolate 2)	minimal inhibiting concentration ([1]; Klebsiella ssp. isolate 2)	interpretation of the result ([1]; Klebsiella ssp. isolate 3)	minimal inhibiting concentration ([1]; Klebsiella ssp. isolate 3)	interpretation of the result ([1]; Klebsiella ssp. isolate 4)	minimal inhibiting concentration ([1]; Klebsiella ssp. isolate 4)	interpretation of the result [2, 5]	interpretation of the result [2, 6]	minimal inhibiting concentration [2, 6]	interpretation of the result [2, 7]	minimal inhibiting concentration [2, 7]	interpretation of the result [2, 8]	minimal inhibiting concentration [2, 8]	interpretation of the result [2, 9]	minimal inhibiting concentration [2, 9]	interpretation of the result ([4]; Escherichia coli isolate 1)	interpretation of the result ([4]; Escherichia coli isolate 2)	interpretation of the result ([4]; Escherichia coli isolate 3)	interpretation of the result ([4]; Escherichia coli isolate 4)	interpretation of the result ([4]; Escherichia coli isolate 5)	other results
NCC[C@H](O)C(=O)N[C@@H]1C[C@H](N)[C@@H](O[C@H]2O[C@H](CN)[C@@H](O)[C@H](O)[C@H]2O)[C@H](O)[C@H]1O[C@H]1O[C@H](CO)[C@@H](O)[C@H](N)[C@H]1O [Amik., Amikacin]	S	≤ 8 µg/mL	S	≤ 8 µg/mL	S	≤ 8 µg/mL	S	S	16 µg/mL (≈ 27.3 µM)	S	16 µg/mL (≈ 27.3 µM)	I	32 µg/mL (≈ 54.6 µM)	I	32 µg/mL (≈ 54.6 µM)	S	S	S	S	S	interpretation of the result ([1]; Klebsiella ssp. isolate 1): S; minimal inhibiting concentration ([1]; Klebsiella ssp. isolate 1): ≤ 8 µg/mL; interpretation of the result ([1]; Klebsiella ssp. isolate 5): R; minimal inhibiting concentration ([1]; Klebsiella ssp. isolate 5): > 32 µg/mL; minimal inhibiting concentration [2, 5]: ≤ 8 µg/mL; interpretation of the result [3, 10]: R; minimal inhibiting concentration [3, 10]: > 32 µg/mL; interpretation of the result [3, 11]: R; minimal inhibiting concentration [3, 11]: > 32 µg/mL; interpretation of the result [3, 12]: I; minimal inhibiting concentration [3, 12]: 32 µg/mL (≈ 54.6 µM); interpretation of the result [3, 13]: R; minimal inhibiting concentration [3, 13]: > 32 µg/mL; interpretation of the result [3, 14]: R; minimal inhibiting concentration [3, 14]: > 32 µg/mL; minimal inhibiting concentration ([4]; Escherichia coli isolate 1): ≤ 8 µg/mL; minimal inhibiting concentration ([4]; Escherichia coli isolate 2): ≤ 8 µg/mL; minimal inhibiting concentration ([4]; Escherichia coli isolate 3): ≤ 8 µg/mL; minimal inhibiting concentration ([4]; Escherichia coli isolate 4): ≤ 8 µg/mL; minimal inhibiting concentration ([4]; Escherichia coli isolate 5): ≤ 8 µg/mL
CC1(C)S[C@@H]2[C@H](NC(=O)[C@H](N)c3ccccc3)C(=O)N2[C@H]1C(=O)O [Amp., Ampicillin]	R	> 16 µg/mL	R	> 16 µg/mL	R	> 16 µg/mL	R	R	> 16 µg/mL	R	> 16 µg/mL	R	> 16 µg/mL	R	> 16 µg/mL	R	R	R	R	R	interpretation of the result ([1]; Klebsiella ssp. isolate 1): R; interpretation of the result ([1]; Klebsiella ssp. isolate 5): R; minimal inhibiting concentration ([1]; Klebsiella ssp. isolate 5): > 16 µg/mL; MIC [1, 15]: > 16 µg/mL; MIC [2, 15]: > 16 µg/mL; interpretation of the result [3, 10]: R; interpretation of the result [3, 11]: R; interpretation of the result [3, 12]: R; interpretation of the result [3, 13]: R; interpretation of the result [3, 14]: R; MIC ([3]; read-out: minimal inhibiting concentration, Acinetobacter baumannii isolate 1): > 16 µg/mL; MIC ([3]; read-out: minimal inhibiting concentration, Acinetobacter baumannii isolate 2): > 16 µg/mL; MIC ([3]; read-out: minimal inhibiting concentration, Acinetobacter baumannii isolate 3): > 16 µg/mL; MIC ([3]; read-out: minimal inhibiting concentration, Acinetobacter baumannii isolate 4): > 16 µg/mL; MIC ([3]; read-out: minimal inhibiting concentration, Acinetobacter baumannii isolate 5): > 16 µg/mL; minimal inhibiting concentration ([4]; Escherichia coli isolate 2): > 16 µg/mL; minimal inhibiting concentration ([4]; Escherichia coli isolate 3): > 16 µg/mL; minimal inhibiting concentration ([4]; Escherichia coli isolate 4): > 16 µg/mL; minimal inhibiting concentration ([4]; Escherichia coli isolate 5): > 16 µg/mL; MIC [4, 15]: > 16 µg/mL
Cc1nnc(SCC2=C(C(=O)O)N3C(=O)[C@@H](NC(=O)Cn4cnnn4)[C@H]3SC2)s1 [Cefa., Cefazolin]	R		R		R		R	R		R		R		R		R	R	R	R	R	MIC [1, 16]: > 16 µg/mL; MIC [1, 17]: > 16 µg/mL; MIC [1, 18]: > 16 µg/mL; MIC [2, 19]: > 16 µg/mL; MIC [2, 20]: > 16 µg/mL; MIC [2, 21]: > 16 µg/mL; MIC [2, 22]: > 16 µg/mL; MIC [2, 23]: > 16 µg/mL; MIC [4, 24]: > 16 µg/mL; MIC [4, 25]: > 16 µg/mL; MIC [4, 26]: > 16 µg/mL; MIC [4, 27]: > 16 µg/mL; MIC [4, 28]: > 16 µg/mL
CO/N=C(\C(=O)N[C@@H]1C(=O)N2C(C(=O)O)=C(CSc3nc(=O)c(=O)[nH]n3C)CS[C@H]12)c1csc(N)n1 [Co., Ceftriaxone]	R		R		R		R	R		R		R		R		R	R	R	R	R	MIC [1, 16]: > 32 µg/mL; MIC [1, 17]: 16 µg/mL (≈ 28.9 µM); MIC [1, 18]: > 32 µg/mL; MIC [2, 19]: > 32 µg/mL; MIC [2, 20]: > 32 µg/mL; MIC [2, 21]: > 32 µg/mL; MIC [2, 22]: > 32 µg/mL; MIC [2, 23]: > 32 µg/mL; MIC [4, 24]: > 32 µg/mL; MIC [4, 25]: > 32 µg/mL; MIC [4, 26]: > 32 µg/mL; MIC [4, 27]: > 32 µg/mL; MIC [4, 28]: > 32 µg/mL
CO[C@@]1(NC(=O)Cc2cccs2)C(=O)N2C(C(=O)O)=C(COC(N)=O)CS[C@@H]21 [Cx., Cefoxitin]	S		R		S		R	R		R		R		R		S	S	S	R	S	MIC [1, 16]: ≤ 4 µg/mL; MIC [1, 17]: > 16 µg/mL; MIC [1, 18]: 8 µg/mL (≈ 18.7 µM); MIC [2, 19]: > 16 µg/mL; MIC [2, 20]: > 16 µg/mL; MIC [2, 21]: > 16 µg/mL; MIC [2, 22]: > 16 µg/mL; MIC [2, 23]: > 16 µg/mL; MIC [4, 24]: 8 µg/mL (≈ 18.7 µM); MIC [4, 25]: ≤ 4 µg/mL; MIC [4, 26]: 8 µg/mL (≈ 18.7 µM); MIC [4, 27]: > 16 µg/mL; MIC [4, 28]: 8 µg/mL (≈ 18.7 µM)
Piperacillin-Tazobactam [PipT.]	I	32/4	S	16/4	R	64/4	R	R	64/4	R	64/4	S	32/4	R	64/4	I	S	I	I	I	minimal inhibiting concentration [2, 5]: 64/4; minimal inhibiting concentration ([4]; Escherichia coli isolate 1): 32/4; minimal inhibiting concentration ([4]; Escherichia coli isolate 2): 2/4; minimal inhibiting concentration ([4]; Escherichia coli isolate 3): 32/4; minimal inhibiting concentration ([4]; Escherichia coli isolate 4): 16/4; minimal inhibiting concentration ([4]; Escherichia coli isolate 5): 32/4

From US9529005B2, “Modulating bacterial MAM polypeptides in pathogenic disease” (priority 2011, dated 2016)
